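Protocol summary: plate cells (96-well), add compound at 5 concentrations, incubate 48 h, interpolate endpoints linearly. GI50 marks 50% less growth.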 Calls of active or inactive are those of the source. No stated cut-off is given here; in the data, active = GI50 up to about 1.1 µM and inactive = higher.
Assays:
Experiment in all cases: NCI tumour cell line growth inhibition, 48 h
HCT-15 = tested on: HCT-15
T47D = tested on: T47D
U-251 = tested on: U-251
NCI-H460 = tested on: NCI-H460
MOLT-4 = tested on: MOLT-4
BT-549 = tested on: BT-549
OVCAR-4 = tested on: OVCAR-4
MCF7 = tested on: MCF7
MDA-MB-435 = tested on: MDA-MB-435
OVCAR-3 = tested on: OVCAR-3
NCI/ADR-RES = tested on: NCI/ADR-RES
SW-620 = tested on: SW-620
RXF 393 = tested on: RXF 393
LOX IMVI = tested on: LOX IMVI
TK-10 = tested on: TK-10
SF-539 = tested on: SF-539
HL-60 = tested on: HL-60
RPMI-8226 = tested on: RPMI-8226
SF-295 = tested on: SF-295
SN12C = tested on: SN12C

SMILES	GI50 (HCT-15) [µM]	GI50 (T47D)	GI50 (U-251)	GI50 (NCI-H460)	GI50 (MOLT-4)	GI50 (BT-549)	GI50 (OVCAR-4)	GI50 (MCF7)	GI50 (MDA-MB-435)	GI50 (OVCAR-3)	GI50 (NCI/ADR-RES)	GI50 (SW-620)	GI50 (RXF 393)	GI50 (LOX IMVI)	GI50 (TK-10)	GI50 (SF-539)	GI50 (HL-60)	GI50 (RPMI-8226)	GI50 (SF-295)	GI50 (SN12C)
O=c1c2cc(O)c(O)cc2oc2cc(O)c(C3OC(CO)C(O)C(O)C3O)c(O)c12 (stereo not drawn)	> 100	> 100 µM (inactive)	> 100 µM (inactive)	> 100 µM (inactive)	> 100 µM (inactive)	> 100 µM (inactive)	> 100 µM (inactive)	> 100 µM (inactive)	> 100 µM (inactive)	> 100 µM (inactive)	> 100 µM (inactive)	> 100 µM (inactive)	> 100 µM (inactive)	> 100 µM (inactive)	> 100 µM (inactive)	> 100 µM (inactive)	> 100 µM (inactive)	> 100 µM (inactive)	> 100 µM (inactive)	–
Nc1nncs1	853	> 3040 µM (inactive)	3100 µM (inactive)	692 µM (inactive)	695 µM (inactive)	1940 µM (inactive)	853 µM (inactive)	2480 µM (inactive)	1630 µM (inactive)	2400 µM (inactive)	1510 µM (inactive)	1260 µM (inactive)	2930 µM (inactive)	1450 µM (inactive)	> 5000 µM (inactive)	3560 µM (inactive)	2080 µM (inactive)	991 µM (inactive)	2760 µM (inactive)	3040 µM (inactive)
Cc1cc(C)c2c(=O)n(CN3CCC(O)(c4ccccc4)CC3)sc2n1	34.7	80.9 µM (inactive)	77.8 µM (inactive)	29 µM (inactive)	28.1 µM (inactive)	97.3 µM (inactive)	29.4 µM (inactive)	47.9 µM (inactive)	20.4 µM (inactive)	38.4 µM (inactive)	53.1 µM (inactive)	26.8 µM (inactive)	19.8 µM (inactive)	31.1 µM (inactive)	11.6 µM (inactive)	21.2 µM (inactive)	20 µM (inactive)	23.4 µM (inactive)	> 100 µM (inactive)	25.7 µM (inactive)
COc1cc2cccc(N)c2cc1OC	> 100	> 100 µM (inactive)	> 100 µM (inactive)	> 100 µM (inactive)	> 100 µM (inactive)	> 66.7 µM (inactive)	> 100 µM (inactive)	> 100 µM (inactive)	> 100 µM (inactive)	> 100 µM (inactive)	> 100 µM (inactive)	> 100 µM (inactive)	> 100 µM (inactive)	> 100 µM (inactive)	> 26.3 µM (inactive)	> 100 µM (inactive)	> 100 µM (inactive)	> 100 µM (inactive)	> 100 µM (inactive)	> 100 µM (inactive)
O=[N+]([O-])/C(C(Cl)=C(Cl)Cl)=C(/Br)SCc1ccccc1	2.07	2.88 µM (inactive)	4.48 µM (inactive)	7.13 µM (inactive)	0.26 µM (active)	2 µM (inactive)	3.3 µM (inactive)	2.84 µM (inactive)	1.47 µM (inactive)	1.86 µM (inactive)	3.29 µM (inactive)	1.63 µM (inactive)	1.79 µM (inactive)	1.56 µM (inactive)	3.08 µM (inactive)	7.4 µM (inactive)	0.222 µM (active)	0.656 µM (active)	15.9 µM (inactive)	2.27 µM (inactive)
O=C1/C(=C\c2cccc(Oc3ccccc3)c2)S(=O)(=O)C(c2ccccc2)N1c1ccccc1Cl (stereo not drawn)	31.2	16.3 µM (inactive)	27.9 µM (inactive)	32.6 µM (inactive)	15.1 µM (inactive)	43.1 µM (inactive)	15.4 µM (inactive)	21.9 µM (inactive)	27.7 µM (inactive)	20.9 µM (inactive)	29.4 µM (inactive)	30.2 µM (inactive)	29 µM (inactive)	29.2 µM (inactive)	77.1 µM (inactive)	5.83 µM (inactive)	13.9 µM (inactive)	16.3 µM (inactive)	30.8 µM (inactive)	23 µM (inactive)
Cc1ccc(S(=O)(=O)n2cc(C=O)c(-c3cn(S(=O)(=O)c4ccc(C)cc4)cc3-c3cn(S(=O)(=O)c4ccc(C)cc4)cc3C=O)c2)cc1	55.7	28 µM (inactive)	29.6 µM (inactive)	29.2 µM (inactive)	12.8 µM (inactive)	60.1 µM (inactive)	–	27.4 µM (inactive)	44.8 µM (inactive)	78.9 µM (inactive)	> 100 µM (inactive)	45.1 µM (inactive)	29.5 µM (inactive)	21.9 µM (inactive)	20.9 µM (inactive)	25.9 µM (inactive)	25.4 µM (inactive)	8.36 µM (inactive)	42.9 µM (inactive)	> 100 µM (inactive)
O=[N+]([O-])c1ccc2c(c1)c1nn2CCCCOc2nn(c3ccc([N+](=O)[O-])cc23)CCCCO1	> 100	> 100 µM (inactive)	> 100 µM (inactive)	> 100 µM (inactive)	> 100 µM (inactive)	> 100 µM (inactive)	> 100 µM (inactive)	> 100 µM (inactive)	> 100 µM (inactive)	> 100 µM (inactive)	> 100 µM (inactive)	–	> 100 µM (inactive)	> 100 µM (inactive)	–	> 100 µM (inactive)	> 100 µM (inactive)	> 100 µM (inactive)	> 100 µM (inactive)	> 100 µM (inactive)
COc1cc(/C=C/C(=O)Oc2ccccc2)ccc1C(=O)O/C=C/c1ccccc1	> 100	> 100 µM (inactive)	> 100 µM (inactive)	> 100 µM (inactive)	> 93.3 µM (inactive)	> 100 µM (inactive)	> 100 µM (inactive)	> 100 µM (inactive)	> 100 µM (inactive)	> 31.6 µM (inactive)	> 100 µM (inactive)	> 100 µM (inactive)	> 100 µM (inactive)	> 100 µM (inactive)	> 100 µM (inactive)	> 100 µM (inactive)	> 100 µM (inactive)	> 100 µM (inactive)	> 100 µM (inactive)	> 100 µM (inactive)
C/C(Nc1ccc(Cl)cc1)=C1/CCOC1=O	> 100	4.91 µM (inactive)	> 100 µM (inactive)	> 31.4 µM (inactive)	1.93 µM (inactive)	52.7 µM (inactive)	> 100 µM (inactive)	13.2 µM (inactive)	0.698 µM (active)	46.8 µM (inactive)	> 75.9 µM (inactive)	> 53.2 µM (inactive)	> 32.1 µM (inactive)	0.277 µM (active)	46.8 µM (inactive)	> 25.4 µM (inactive)	1.15 µM (inactive)	1.27 µM (inactive)	6.7 µM (inactive)	> 100 µM (inactive)
CN(C(=O)CCC(=O)O)c1ccccc1C(=O)O	> 100	> 100 µM (inactive)	> 100 µM (inactive)	> 100 µM (inactive)	> 100 µM (inactive)	> 100 µM (inactive)	> 100 µM (inactive)	> 100 µM (inactive)	> 100 µM (inactive)	> 100 µM (inactive)	> 100 µM (inactive)	> 100 µM (inactive)	> 100 µM (inactive)	> 100 µM (inactive)	> 100 µM (inactive)	> 100 µM (inactive)	> 100 µM (inactive)	> 100 µM (inactive)	> 100 µM (inactive)	–
C[C@]12CC[C@H]3[C@@H](CC=C4C[C@@H](O)CC[C@@]43C)[C@@H]1C/C(=C\c1ccncc1)[C@@H]2O	20.9	12.1 µM (inactive)	16.5 µM (inactive)	15.1 µM (inactive)	9.77 µM (inactive)	3.51 µM (inactive)	12.2 µM (inactive)	23 µM (inactive)	19.7 µM (inactive)	23.7 µM (inactive)	17.3 µM (inactive)	31.1 µM (inactive)	18.1 µM (inactive)	22 µM (inactive)	39.3 µM (inactive)	16.9 µM (inactive)	10.2 µM (inactive)	9.91 µM (inactive)	16.6 µM (inactive)	17.2 µM (inactive)
O=C1NC(=O)[C@H]2C3C=CC([C@@H]12)[C@@H]1C(=O)NC(=O)[C@H]31	> 100	> 100 µM (inactive)	> 100 µM (inactive)	> 100 µM (inactive)	> 100 µM (inactive)	> 100 µM (inactive)	–	97.1 µM (inactive)	> 100 µM (inactive)	> 100 µM (inactive)	> 100 µM (inactive)	> 100 µM (inactive)	> 100 µM (inactive)	> 100 µM (inactive)	> 100 µM (inactive)	> 100 µM (inactive)	> 100 µM (inactive)	> 100 µM (inactive)	> 100 µM (inactive)	> 100 µM (inactive)
CC1=C[C@@H](C)C[C@]2(C)CC[C@H](O2)[C@]23CC[C@](CO)(C[C@H](O2)[C@@H]2O[C@@](C)(CC2=O)[C@@H](O)[C@H]2CC[C@@]4(CCC[C@@H](O4)[C@H](C)C(=O)O[C@H]4C[C@H]([C@]5(O)OCC[C@H](C)[C@@H]5O)O[C@H]4C=C1)O2)O3	0.15	0.427 µM (active)	0.022 µM (active)	0.0333 µM (active)	–	0.0127 µM (active)	0.0179 µM (active)	> 10 µM (inactive)	0.0249 µM (active)	0.0171 µM (active)	> 5.18 µM (inactive)	0.214 µM (active)	0.0118 µM (active)	0.001 µM (active)	0.0179 µM (active)	0.00272 µM (active)	0.0809 µM (active)	> 10 µM (inactive)	0.00341 µM (active)	0.0212 µM (active)

Reference: ChEMBL document CHEMBL1201862, “PubChem BioAssay data set” (2004)
